Experiments:
[1] = target: T1, Adenosylhomocysteinase (Rattus norvegicus, UniProt P10760); assay: Compound was tested for its inhibitory activity against recombinant rat liver S-adenosyl-homocysteine hydrolase
T1 sequence (P10760 whole entry): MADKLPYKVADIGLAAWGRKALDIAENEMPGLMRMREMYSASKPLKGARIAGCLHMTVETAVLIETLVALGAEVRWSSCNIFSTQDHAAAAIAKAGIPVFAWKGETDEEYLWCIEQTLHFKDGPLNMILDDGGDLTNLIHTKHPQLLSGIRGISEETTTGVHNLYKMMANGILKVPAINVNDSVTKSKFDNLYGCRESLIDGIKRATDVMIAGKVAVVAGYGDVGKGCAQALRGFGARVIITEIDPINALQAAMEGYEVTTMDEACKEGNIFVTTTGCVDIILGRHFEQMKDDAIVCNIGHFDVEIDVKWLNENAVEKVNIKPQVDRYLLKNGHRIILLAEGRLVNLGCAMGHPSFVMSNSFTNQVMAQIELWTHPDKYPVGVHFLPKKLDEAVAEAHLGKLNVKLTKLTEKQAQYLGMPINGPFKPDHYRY

[2] = target: T2, Adenosylhomocysteinase (Rattus norvegicus) (UniProt P10760)
T2 sequence (whole entry): T1 sequence (P10760 whole entry)
Description: (§1) Rate constant was evaluated against S-adenosyl-homocysteine hydrolase

[3] = target: T2, Adenosylhomocysteinase (Rattus norvegicus); remark: listed apart in the source
Description: as §1

Ki [1] [nM]	k2 [2] [min⁻¹]	k2 [3] [min⁻¹]	SMILES
87	0.05	–	Nc1ncnc2c1ncn2[C@@H]1C/C(=C\F)[C@@H](O)[C@H]1O
40	0.05	–	Nc1ncnc2c1ncn2[C@@H]1O/C(=C/F)[C@@H](O)[C@H]1O
39	0.082	–	Nc1ncnc2c1ncn2[C@@H]1O/C(=C\F)[C@@H](O)[C@H]1O
112	–	0.031	Nc1ncnc2c1ncn2[C@@H]1C/C(=C/F)[C@@H](O)[C@H]1O

Reference: ChEMBL document CHEMBL1151008, “Synthesis and evaluation of 4-5-dehydro-5-fluoroaristeromycins as S-adenosyl-L-homocysteine (AdoHcy) hydrolase inhibitors” (Bioorg Med Chem Lett, 1992)
